Measurements taken from US20090286722A1 (priority 2005, published 2009).

Key:
ob/ob mice [1] = assay: Glucose tolerance 4 hours after peptide administration in 18 hour fasted ob/ob mice; format: in vivo; details: 25 nmoles/kg, glucose 18 mmoles/kg
ob/ob mice [2] = assay: Acute glucose lowering and insulin release, peptide given i.p. with glucose to 18 hour fasted ob/ob mice
Experimental: (§2) Obese diabetic (ob/ob) mice derived from the colony maintained at Aston University, UK (23) were used at 12-16 weeks of age. […] Drinking water and standard rodent maintenance diet (Trouw Nutrition, Cheshire, UK) were freely available.
(§3) Food intake and body weight were recorded daily from 5 days before commencement of the treatment regimes. Plasma glucose and insulin concentrations (10:00 h) were monitored at 2-4 day intervals. […] All acute tests were commenced at 10:00 h. […] Serum samples were taken for determination of glucagon concentrations. All other blood samples were collected from the cut tip of the tail vein of conscious mice into chilled fluoride/heparin coated glucose microcentrifuge tubes (Sarstedt, Nümbrecht, Germany) at the times indicated in the Figures. Blood samples were immediately centrifuged using a Beckman microcentrifuge (Beckman Instruments, Galway, Ireland) for 30 seconds at 13,000×g. The resulting plasma was then aliquoted into fresh tubes and stored at −20° C. prior to glucose and insulin determinations.

dipeptidyl peptidase IV = dipeptidyl peptidase IV (Sus scrofa, UniProt P22411); assay: DPP IV degradation, % intact peptide by HPLC; format: in vitro ADME, porcine; details: pig, purified porcine dipeptidyl peptidase IV (DPP IV), 37° C., pH 7.8
Sequence of dipeptidyl peptidase IV (P22411 whole entry): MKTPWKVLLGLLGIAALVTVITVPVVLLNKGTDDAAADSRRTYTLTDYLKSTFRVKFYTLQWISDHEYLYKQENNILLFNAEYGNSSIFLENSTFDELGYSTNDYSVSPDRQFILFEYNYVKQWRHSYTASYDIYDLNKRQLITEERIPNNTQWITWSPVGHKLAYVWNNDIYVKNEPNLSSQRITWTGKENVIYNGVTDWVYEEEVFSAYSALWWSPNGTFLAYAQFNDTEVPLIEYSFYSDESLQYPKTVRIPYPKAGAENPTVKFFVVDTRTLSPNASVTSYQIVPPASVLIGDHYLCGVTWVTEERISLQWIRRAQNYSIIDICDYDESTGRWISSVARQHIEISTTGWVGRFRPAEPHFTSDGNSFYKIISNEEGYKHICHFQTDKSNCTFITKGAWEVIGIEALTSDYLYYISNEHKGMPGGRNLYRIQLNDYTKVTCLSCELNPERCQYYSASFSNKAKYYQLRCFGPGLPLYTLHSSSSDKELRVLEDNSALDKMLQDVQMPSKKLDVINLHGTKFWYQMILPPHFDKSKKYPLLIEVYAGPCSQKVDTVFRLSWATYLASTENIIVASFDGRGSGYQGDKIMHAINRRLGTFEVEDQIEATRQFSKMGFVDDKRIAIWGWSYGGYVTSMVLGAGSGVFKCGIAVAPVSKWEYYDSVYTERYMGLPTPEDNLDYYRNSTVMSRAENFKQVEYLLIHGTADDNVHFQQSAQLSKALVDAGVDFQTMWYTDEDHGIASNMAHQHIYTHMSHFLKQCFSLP
Experimental: (§1) HPLC peak area data were used to calculate the percentage intact peptide remaining at the various time points during the incubation.

[3] = target: purified porcine dipeptidyl peptidase IV (Sus scrofa, UniProt P22411); assay: DPP IV degradation, % intact peptide by HPLC; format: in vitro ADME; details: 37° C., pH 7.8
Sequence of purified porcine dipeptidyl peptidase IV (P22411 whole entry): as above
Experimental: as §1

ob/ob mice [4] = assay: 24 hour plasma glucose and insulin profile after a single dose in non-fasted ob/ob mice; format: in vivo
Description: Dose of 12.5 nmol kg^−1 was chosen to evaluate the longer-term duration of action of a single dose of native or fatty acid derivatised GIP in non-fasted ob/ob mice.

ob/ob mice [5] = assay: Once daily i.p. injection for 14 days in ob/ob mice
Experimental: as §2, §3

DPP IV = details: cited: O'Harte 2002; Irwin 2005; cited from earlier work
[6] = 25 nmol/kg i.p. with glucose 18 mmol/kg
[7] = after 14 daily injections, glucose 18 mmoles/kg
[8] = after 14 days, glucose 18 mmoles/kg with native GIP

## CCCCCCCCCCCCCCCC(=O)NCCCC[C@H](NC(=O)[C@H](Cc1c[nH]c2ccccc12)NC(=O)[C@H](CC(=O)O)NC(=O)[C@H](CC(N)=O)NC(=O)[C@H](CCCCN)NC(=O)[C@H](CCCCN)NC(=O)CNC(=O)[C@H](CCCCN)NC(=O)[C@H](CCC(N)=O)NC(=O)[C@H](C)NC(=O)[C@H](CC(C)C)NC(=O)[C@H](CC(C)C)NC(=O)[C@H](Cc1c[nH]c2ccccc12)NC(=O)[C@H](CC(N)=O)NC(=O)[C@@H](NC(=O)[C@H](Cc1ccccc1)NC(=O)[C@H](CC(=O)O)NC(=O)[C@H](CCC(N)=O)NC(=O)[C@H](CCC(N)=O)NC(=O)[C@H](Cc1c[nH]cn1)NC(=O)[C@@H](NC(=O)[C@H](CCCCN)NC(=O)[C@H](CC(=O)O)NC(=O)[C@H](CCSC)NC(=O)[C@H](C)NC(=O)[C@@H](NC(=O)[C@H](CO)NC(=O)[C@H](Cc1ccc(O)cc1)NC(=O)[C@H](CC(=O)O)NC(=O)[C@H](CO)NC(=O)[C@@H](NC(=O)[C@H](Cc1ccccc1)NC(=O)[C@@H](NC(=O)CNC(=O)[C@H](CCC(=O)O)NC(=O)[C@H](C)NC(=O)[C@@H](N)Cc1ccc(O)cc1)[C@@H](C)O)[C@@H](C)CC)[C@@H](C)CC)[C@@H](C)CC)C(C)C)C(=O)N[C@@H](Cc1c[nH]cn1)C(=O)N[C@@H](CC(N)=O)C(=O)N[C@H](C(=O)N[C@H](C(=O)N[C@@H](CCC(N)=O)C(=O)O)[C@@H](C)O)[C@@H](C)CC [GIP(LysPAL^37)]
ob/ob mice [1]
  insulinotropic properties 4 hours after administration: less evident
ob/ob mice [1]; versus saline
  reduction of glycaemic excursion following i.p. glucose 4 hours after administration: 18%
ob/ob mice [2]; [6]
  glucose AUC response compared to native GIP: significant reduction
  plasma glucose concentrations and AUC (0-60 min) compared to glucose alone: significantly reduced
ob/ob mice [2]; 25 nmol/kg i.p. with glucose, insulin AUC 0-60 min
  overall enhancement of insulin release over native GIP: 2.7 fold
Dipeptidyl peptidase IV; 2 h incubation with DPP IV (5 mU), read-out: % Intact peptide remaining after time (h) 2
  remaining at 2 h, 2 mM: 100%
Dipeptidyl peptidase IV; 8 h incubation with DPP IV (5 mU), read-out: % Intact peptide remaining after time (h) 8
  remaining at 8 h, 2 mM: 100%
Dipeptidyl peptidase IV; 24 h incubation with DPP IV (5 mU), read-out: % Intact peptide remaining after time (h) 24
  remaining at 24 h, 2 mM: 100%
[3]; 0 h incubation with DPP IV (5 mU)
  % Intact peptide remaining after time (h) 0: 100%
[3]; 24 h incubation with DPP IV (5 mU)
  % Intact peptide remaining after time (h) 24: remained fully intact
ob/ob mice [4]; single 12.5 nmol/kg i.p.
  effect on plasma glucose over 24 hours: significant (P<0.01) and sustained decrease
  glucose concentrations at 24 hours and AUC values versus native GIP or saline treated controls: significantly less
  insulin concentrations from 4 to 24 hours versus controls: not significantly different
ob/ob mice [4]; single injection
  time for which decline of plasma glucose was sustained after single injection: at least 24 hours
ob/ob mice [5]; 25 nmoles/kg/day, 14 days
  effect on body weight: no effect
  effect on food intake: no effect
  non-fasting plasma insulin concentrations (tendency towards elevated): did not achieve statistical significance
ob/ob mice [5]; 25 nmoles/kg/day, day 14
  non-fasting plasma glucose concentrations at 14 days versus control: significantly (p<0.05) lowered
  plasma glucagon on day 14 versus control: no differences observed
ob/ob mice [5]; after 14 daily injections
  islet area compared with saline-treated ob/ob mice: significant increases
  number of pancreatic islets compared with saline-treated ob/ob mice: significant increases
  pancreatic insulin content compared with saline-treated controls: did not affect
  pancreatic weight compared with saline-treated controls: did not affect
ob/ob mice [5]; [7]
  insulinotropic response following i.p. glucose versus control: augmented
  overall glycaemic excursion after i.p. glucose versus control: significantly reduced
ob/ob mice [5]; after 14 days, 18 hours fasted
  plasma glucose response to 15 minutes feeding, at 15 minutes: significantly lowered
  plasma insulin response to 15 minutes feeding, at 15 minutes: significantly increased
ob/ob mice [5]; after 14 days, 18 hours fasted, AUC 0-105 min
  overall insulinotropic response to feeding: overall increased insulinotropic response
ob/ob mice [5]; after 14 days, insulin 50 U/kg i.p.
  hypoglycemic action of insulin (insulin sensitivity), AUC and post injection values versus controls: significantly augmented
ob/ob mice [5]; [8]
  glycaemic excursions after glucose with native GIP compared to control animals: significantly decreased
  overall glucose-dependent insulinotropic response to native GIP: significantly augmented
ob/ob mice [5]; long-term administration
  adverse effects following long-term administration: No adverse effects were observed
DPP IV
  resistance to DPP IV degradation: increased resistance to DPP IV degradation
